In ChEMBL document CHEMBL1201862, “PubChem BioAssay data set” (2004):
Blank lines part the entries; values can stand above or below the molecule they belong to. Calls of active or inactive are those of the source.

Assays:
Protein skinhead-1 = biological target: T1, Protein skinhead-1 (Caenorhabditis elegans, UniProt P34707); format: functional
T1 sequence (P34707 whole entry): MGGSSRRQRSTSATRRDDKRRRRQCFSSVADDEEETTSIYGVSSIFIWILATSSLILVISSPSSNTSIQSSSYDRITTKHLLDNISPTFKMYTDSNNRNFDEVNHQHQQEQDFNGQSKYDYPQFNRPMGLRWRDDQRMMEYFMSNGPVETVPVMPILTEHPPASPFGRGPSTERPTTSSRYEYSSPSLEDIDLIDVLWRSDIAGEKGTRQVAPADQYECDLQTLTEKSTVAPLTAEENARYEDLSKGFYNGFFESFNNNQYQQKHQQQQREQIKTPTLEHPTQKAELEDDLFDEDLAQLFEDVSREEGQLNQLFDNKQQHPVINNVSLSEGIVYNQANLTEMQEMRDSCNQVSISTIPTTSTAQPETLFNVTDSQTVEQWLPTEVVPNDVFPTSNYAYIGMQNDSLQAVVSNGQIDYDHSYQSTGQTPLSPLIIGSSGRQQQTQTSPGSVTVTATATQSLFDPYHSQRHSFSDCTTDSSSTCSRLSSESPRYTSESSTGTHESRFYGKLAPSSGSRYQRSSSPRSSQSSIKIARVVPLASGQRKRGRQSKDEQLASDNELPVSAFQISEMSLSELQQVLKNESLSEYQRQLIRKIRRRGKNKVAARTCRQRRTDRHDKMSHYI

Coagulation factor XII = biological target: T2, Coagulation factor XII (Homo sapiens, UniProt P00748); format: functional;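 note: activated factor XIIa alpha cleaving a fluorogenic AMC peptide substrate; inhibitor potency from loss of enzyme activity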
T2 sequence (P00748 whole entry): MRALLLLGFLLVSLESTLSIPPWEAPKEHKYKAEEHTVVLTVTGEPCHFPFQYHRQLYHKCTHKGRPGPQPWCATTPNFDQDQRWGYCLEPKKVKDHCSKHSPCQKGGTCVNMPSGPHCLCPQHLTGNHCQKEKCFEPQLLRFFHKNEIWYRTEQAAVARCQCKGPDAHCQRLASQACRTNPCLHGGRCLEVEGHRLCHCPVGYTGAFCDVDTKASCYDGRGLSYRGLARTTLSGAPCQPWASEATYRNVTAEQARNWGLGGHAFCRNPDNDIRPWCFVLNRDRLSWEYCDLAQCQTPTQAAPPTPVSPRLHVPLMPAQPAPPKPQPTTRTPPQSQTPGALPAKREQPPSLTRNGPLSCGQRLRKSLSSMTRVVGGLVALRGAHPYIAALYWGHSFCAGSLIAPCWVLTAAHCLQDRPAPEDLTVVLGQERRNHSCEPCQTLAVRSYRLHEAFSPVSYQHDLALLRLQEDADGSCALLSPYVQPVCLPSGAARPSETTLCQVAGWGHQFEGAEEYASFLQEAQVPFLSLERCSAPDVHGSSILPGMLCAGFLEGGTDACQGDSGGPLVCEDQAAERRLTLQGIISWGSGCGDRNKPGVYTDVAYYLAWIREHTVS

[1] = biological target: T3, High affinity choline transporter 1 (Homo sapiens, UniProt Q9GZV3); experiment: human choline transporter blockers, potency – cell-based, 5-point CRC, membrane potential dye, dose response (AID 504840); format: functional
T3 sequence (Q9GZV3 whole entry): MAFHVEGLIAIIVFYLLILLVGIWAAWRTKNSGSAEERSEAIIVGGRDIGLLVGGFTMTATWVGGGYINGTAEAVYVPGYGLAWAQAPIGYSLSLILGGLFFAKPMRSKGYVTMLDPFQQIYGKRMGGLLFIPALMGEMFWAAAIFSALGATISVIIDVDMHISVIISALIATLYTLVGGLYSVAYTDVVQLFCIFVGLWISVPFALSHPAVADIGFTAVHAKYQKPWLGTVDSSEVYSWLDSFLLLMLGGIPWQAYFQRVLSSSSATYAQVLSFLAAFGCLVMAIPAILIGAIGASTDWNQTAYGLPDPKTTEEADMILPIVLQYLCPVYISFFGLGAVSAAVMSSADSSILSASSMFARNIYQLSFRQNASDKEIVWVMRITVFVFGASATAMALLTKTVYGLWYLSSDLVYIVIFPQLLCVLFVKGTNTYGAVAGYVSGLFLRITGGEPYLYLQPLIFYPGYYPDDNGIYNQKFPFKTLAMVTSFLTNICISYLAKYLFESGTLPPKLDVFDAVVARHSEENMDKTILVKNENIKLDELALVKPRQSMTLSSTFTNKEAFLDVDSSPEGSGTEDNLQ

Fatty acid synthase [2] = biological target: T4, Fatty acid synthase (Homo sapiens, UniProt P49327); experiment: inhibition of human FAS-TE enzyme activity – biochemical, endpoint fluorescence intensity, uHTS hits, dose response (AID 624327); format: functional;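 note: fluorescence from hydrolysis of an O-methyl fluorescein acyl ester substrate by the enzyme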
Fatty acid synthase [3] = biological target: T4, Fatty acid synthase; experiment: inhibition of human FAS-TE enzyme activity – biochemical, kinetic fluorescence intensity, dose response (AID 624326); format: functional;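 note: rate of fluorescence rise from hydrolysis of a fluorogenic O-methyl fluorescein ester substrate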
Leucine aminopeptidase = biological target: T5, Leucine aminopeptidase (Plasmodium falciparum 3D7, UniProt Q8IL11); experiment: P. falciparum M17LAP inhibitors, primary screen, biochemical, fluorogenic H-Leu-NHMec substrate, 1536-well (AID 1619); format: functional
T5 sequence (Q8IL11 whole entry): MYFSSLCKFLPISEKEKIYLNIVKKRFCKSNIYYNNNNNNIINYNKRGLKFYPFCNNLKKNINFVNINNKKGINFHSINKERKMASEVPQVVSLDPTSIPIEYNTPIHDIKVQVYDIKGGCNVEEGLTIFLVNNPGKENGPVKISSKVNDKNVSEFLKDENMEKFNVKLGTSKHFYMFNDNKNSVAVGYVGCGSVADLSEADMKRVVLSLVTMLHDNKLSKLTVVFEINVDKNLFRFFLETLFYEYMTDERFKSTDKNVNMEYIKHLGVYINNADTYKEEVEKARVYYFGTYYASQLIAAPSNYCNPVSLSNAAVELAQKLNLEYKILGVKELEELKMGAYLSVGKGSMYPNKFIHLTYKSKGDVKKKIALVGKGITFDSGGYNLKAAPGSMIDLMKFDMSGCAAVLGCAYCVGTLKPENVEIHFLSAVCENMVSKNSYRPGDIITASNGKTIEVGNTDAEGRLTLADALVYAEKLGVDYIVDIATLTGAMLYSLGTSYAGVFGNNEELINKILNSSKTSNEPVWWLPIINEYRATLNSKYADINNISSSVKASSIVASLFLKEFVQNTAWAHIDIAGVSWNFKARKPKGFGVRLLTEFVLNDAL

Large T antigen = Large T antigen (Simian virus 40, UniProt P03070); format: functional, Betapolyomavirus macacae;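 note: Confirmatory-stage PubChem screen for compounds that inhibit SV40 T antigen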
[4] = biological target: Eukaryotic translation initiation factor 4E (Mus musculus, UniProt P63073); experiment: blockers of eIF4G binding by eIF4E – biochemical, TR-FRET, dose response (AID 855); format: functional;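 note: potency for disrupting eIF4E binding to eIF4GI seen as loss of FRET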
[5] = biological target: T6, Rac GTPase-activating protein 1 (Homo sapiens, UniProt Q9H0H5); experiment: blockers of MgcRacGAP-driven Rac1 GTP hydrolysis – biochemical, ADP Hunter fluorescence, primary and confirmatory, confirmation (AID 624330); format: functional
T6 sequence (Q9H0H5 whole entry): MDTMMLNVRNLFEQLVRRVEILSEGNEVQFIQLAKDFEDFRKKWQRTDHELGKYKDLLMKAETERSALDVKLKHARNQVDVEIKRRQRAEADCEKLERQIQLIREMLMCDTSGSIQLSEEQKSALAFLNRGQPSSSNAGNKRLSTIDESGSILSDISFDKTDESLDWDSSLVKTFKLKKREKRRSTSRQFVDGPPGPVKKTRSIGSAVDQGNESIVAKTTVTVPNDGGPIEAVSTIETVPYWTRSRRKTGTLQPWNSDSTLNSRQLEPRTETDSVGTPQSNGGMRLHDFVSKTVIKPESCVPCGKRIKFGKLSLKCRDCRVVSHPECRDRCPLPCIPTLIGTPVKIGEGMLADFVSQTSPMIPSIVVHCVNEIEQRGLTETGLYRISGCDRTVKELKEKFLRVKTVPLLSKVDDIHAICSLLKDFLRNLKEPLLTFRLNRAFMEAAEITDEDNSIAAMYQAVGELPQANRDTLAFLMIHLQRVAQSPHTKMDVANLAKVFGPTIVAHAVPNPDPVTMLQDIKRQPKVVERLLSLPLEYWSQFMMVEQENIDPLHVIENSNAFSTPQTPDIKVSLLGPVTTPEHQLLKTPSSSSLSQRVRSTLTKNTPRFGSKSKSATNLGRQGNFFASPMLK

T4 sequence (P49327 whole entry): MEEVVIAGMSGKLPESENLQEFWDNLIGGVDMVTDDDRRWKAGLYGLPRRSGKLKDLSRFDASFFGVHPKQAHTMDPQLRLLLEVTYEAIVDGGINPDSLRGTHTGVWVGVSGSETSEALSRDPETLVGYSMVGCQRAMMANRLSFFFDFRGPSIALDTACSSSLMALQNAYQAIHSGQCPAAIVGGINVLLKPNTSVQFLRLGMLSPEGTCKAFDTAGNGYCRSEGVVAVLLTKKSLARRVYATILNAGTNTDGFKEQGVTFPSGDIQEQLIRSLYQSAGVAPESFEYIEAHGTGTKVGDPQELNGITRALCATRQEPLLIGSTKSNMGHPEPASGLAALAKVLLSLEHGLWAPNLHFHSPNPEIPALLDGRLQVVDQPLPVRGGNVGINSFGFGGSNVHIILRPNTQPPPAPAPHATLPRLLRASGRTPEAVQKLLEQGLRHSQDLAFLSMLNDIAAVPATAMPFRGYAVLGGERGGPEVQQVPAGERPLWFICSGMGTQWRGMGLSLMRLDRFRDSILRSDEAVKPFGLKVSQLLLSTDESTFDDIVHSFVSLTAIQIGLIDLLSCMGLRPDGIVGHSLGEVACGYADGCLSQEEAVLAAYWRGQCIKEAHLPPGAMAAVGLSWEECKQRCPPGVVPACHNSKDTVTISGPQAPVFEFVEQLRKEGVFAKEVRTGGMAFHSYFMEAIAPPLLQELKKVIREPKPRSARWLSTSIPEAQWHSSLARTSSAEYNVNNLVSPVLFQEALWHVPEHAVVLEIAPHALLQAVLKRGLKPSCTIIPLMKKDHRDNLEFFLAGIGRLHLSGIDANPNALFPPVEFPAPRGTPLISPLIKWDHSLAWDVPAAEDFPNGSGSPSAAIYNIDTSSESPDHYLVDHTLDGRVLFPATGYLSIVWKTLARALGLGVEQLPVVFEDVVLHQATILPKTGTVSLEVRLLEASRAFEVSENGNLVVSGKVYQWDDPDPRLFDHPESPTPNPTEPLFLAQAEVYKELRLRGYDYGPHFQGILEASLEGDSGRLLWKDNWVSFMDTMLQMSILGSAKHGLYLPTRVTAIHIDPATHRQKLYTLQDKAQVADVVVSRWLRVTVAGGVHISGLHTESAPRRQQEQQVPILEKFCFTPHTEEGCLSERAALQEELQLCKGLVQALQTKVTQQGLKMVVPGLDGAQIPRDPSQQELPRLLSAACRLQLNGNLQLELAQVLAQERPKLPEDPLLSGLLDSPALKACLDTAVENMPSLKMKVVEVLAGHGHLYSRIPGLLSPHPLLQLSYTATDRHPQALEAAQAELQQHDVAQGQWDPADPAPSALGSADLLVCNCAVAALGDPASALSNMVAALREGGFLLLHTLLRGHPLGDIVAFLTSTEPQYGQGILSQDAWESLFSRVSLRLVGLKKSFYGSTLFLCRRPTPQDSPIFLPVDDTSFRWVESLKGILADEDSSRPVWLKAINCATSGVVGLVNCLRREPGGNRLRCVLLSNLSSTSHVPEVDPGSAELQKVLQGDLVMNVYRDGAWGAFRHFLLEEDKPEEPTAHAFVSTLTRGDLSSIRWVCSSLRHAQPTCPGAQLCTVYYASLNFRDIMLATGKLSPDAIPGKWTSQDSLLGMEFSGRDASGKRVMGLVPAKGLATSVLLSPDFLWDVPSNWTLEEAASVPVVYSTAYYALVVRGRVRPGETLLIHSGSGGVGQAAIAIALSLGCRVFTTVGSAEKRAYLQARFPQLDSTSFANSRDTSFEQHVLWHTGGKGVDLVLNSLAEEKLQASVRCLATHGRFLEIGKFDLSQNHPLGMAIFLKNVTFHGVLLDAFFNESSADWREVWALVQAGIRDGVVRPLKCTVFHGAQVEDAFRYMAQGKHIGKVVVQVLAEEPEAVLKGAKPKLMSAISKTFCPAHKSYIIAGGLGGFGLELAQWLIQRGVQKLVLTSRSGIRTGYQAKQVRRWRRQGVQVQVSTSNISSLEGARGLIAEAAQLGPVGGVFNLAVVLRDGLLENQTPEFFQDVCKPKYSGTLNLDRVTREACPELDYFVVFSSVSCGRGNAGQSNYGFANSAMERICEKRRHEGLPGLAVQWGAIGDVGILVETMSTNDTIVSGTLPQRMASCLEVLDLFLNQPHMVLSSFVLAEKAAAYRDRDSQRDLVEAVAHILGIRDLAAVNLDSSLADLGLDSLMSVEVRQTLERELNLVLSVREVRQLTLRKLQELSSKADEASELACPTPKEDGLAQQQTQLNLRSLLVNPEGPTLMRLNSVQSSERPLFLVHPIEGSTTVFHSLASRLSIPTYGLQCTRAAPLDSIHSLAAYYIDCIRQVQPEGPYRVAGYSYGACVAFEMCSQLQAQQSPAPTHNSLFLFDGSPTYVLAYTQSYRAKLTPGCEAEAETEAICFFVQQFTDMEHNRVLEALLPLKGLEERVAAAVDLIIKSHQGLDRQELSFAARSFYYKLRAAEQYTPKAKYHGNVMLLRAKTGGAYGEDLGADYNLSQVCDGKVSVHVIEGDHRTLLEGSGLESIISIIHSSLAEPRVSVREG
Chain of Large T antigen (P03070 whole entry): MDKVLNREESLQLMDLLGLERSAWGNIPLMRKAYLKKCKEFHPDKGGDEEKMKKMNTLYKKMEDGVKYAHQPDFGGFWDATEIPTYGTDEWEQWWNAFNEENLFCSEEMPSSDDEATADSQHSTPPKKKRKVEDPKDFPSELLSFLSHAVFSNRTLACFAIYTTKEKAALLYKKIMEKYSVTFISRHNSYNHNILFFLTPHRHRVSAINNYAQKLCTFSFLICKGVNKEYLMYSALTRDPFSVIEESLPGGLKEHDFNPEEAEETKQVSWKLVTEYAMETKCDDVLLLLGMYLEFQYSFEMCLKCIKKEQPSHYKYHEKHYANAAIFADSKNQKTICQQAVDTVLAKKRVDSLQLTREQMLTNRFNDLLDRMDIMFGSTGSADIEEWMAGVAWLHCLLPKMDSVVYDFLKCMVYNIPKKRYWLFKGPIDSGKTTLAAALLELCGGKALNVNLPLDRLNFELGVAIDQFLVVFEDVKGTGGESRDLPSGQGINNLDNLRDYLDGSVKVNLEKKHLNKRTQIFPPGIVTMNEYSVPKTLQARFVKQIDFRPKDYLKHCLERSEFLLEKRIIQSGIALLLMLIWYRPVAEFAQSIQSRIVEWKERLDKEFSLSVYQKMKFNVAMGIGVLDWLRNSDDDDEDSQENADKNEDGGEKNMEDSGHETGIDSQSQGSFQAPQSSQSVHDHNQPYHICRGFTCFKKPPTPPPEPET
Chain of Eukaryotic translation initiation factor 4E (P63073 whole entry): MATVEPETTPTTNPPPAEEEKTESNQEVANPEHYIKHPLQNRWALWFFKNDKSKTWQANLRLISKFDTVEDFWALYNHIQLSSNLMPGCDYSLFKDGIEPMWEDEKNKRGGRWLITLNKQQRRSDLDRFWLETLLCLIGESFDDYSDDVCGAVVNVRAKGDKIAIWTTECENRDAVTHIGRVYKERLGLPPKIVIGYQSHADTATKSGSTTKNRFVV

SMILES: CCOc1ccccc1NC(=O)C(CC(C)C)NC(=O)C1CCC(C)CC1 (centres undefined)
IC50 (Protein skinhead-1): > 100 µM (inactive)

SMILES: CCOc1ccc2nc(O)c(C(c3nnnn3C3CCCCC3)N3CCN(C)CC3)cc2c1 (centres undefined)
IC50 (Coagulation factor XII): > 50 µM (inactive)

SMILES: CCN(CC)CCCCCCCCOC(=O)c1cc(OC)c(OC)c(OC)c1
IC50 [1]: 15.1 µM (active)

SMILES: O=C(OCc1ccc([N+](=O)[O-])cc1)C1CCN(S(=O)(=O)c2ccccc2)CC1
IC50 (Fatty acid synthase [2]): 9.66 µM (active) | IC50 (Fatty acid synthase [3]): 9.2 µM (active)

SMILES: O=C(NCCc1ccccc1)c1cc(=O)c2ccccc2o1
IC50 (Coagulation factor XII): > 50 µM (inactive)

SMILES: FC(F)C(F)(F)C(F)(F)C(F)(F)c1cc(-c2ccccc2)n[nH]1
IC50 (Coagulation factor XII): > 50 µM (inactive)

SMILES: COc1cc(/C=N/n2cnnc2)ccc1OC(=O)c1cccnc1
IC50 (Coagulation factor XII): > 50 µM (inactive) | IC50 [5]: 32 µM (active)

SMILES: CC(C)CN1CCC(Oc2cccc(C(=O)NCCc3ccccc3)c2)CC1
IC50 [1]: 10.7 µM (active)

Next, values leading:

IC50 [1]: 10.5 µM (active)
SMILES: O=[N+]([O-])c1cccc(S(=O)(=O)Nc2ccc(Cc3ccncc3)cc2)c1

IC50 (Leucine aminopeptidase): 16.7 µM (active) | IC50 (Large T antigen): 48.1 µM (active) | IC50 [4]: > 64 µM (inactive)
SMILES: OC1=C2C(=Nc3nc(S)nc(O)c3C2c2ccc(Br)cc2)CCC1 (centres undefined)

IC50 (Fatty acid synthase [2]): 2.93 µM (active) | IC50 (Fatty acid synthase [3]): 2.43 µM (active)
SMILES: CCCCCOC(=O)c1ccc(N2C(=O)C3C4C=CC(C4)C3C2=O)cc1 (centres undefined)

IC50 (Large T antigen): 3.29 µM (active)
SMILES: Cn1c(SCC(=O)N/N=C/c2ccc(O)c(O)c2)nc2ccccc21

IC50 (Fatty acid synthase [2]): 4.75 µM (active) | IC50 (Fatty acid synthase [3]): 2.86 µM (active)
SMILES: O=C(Nc1cc([N+](=O)[O-])ccc1Cl)C(Sc1ccccc1)c1ccccc1 (centres undefined)
